Reference: US20020137929A1, “1 - (3-heterocyclylphenyl) isothiourea, -isourea, -guanidine and -amidine herbicidal agents” (Intellectual Property Department, BASF Aktiengesellschaft, priority 1998, published 2002)

Experiments:
CYPIR (Rice Flatsedge) = assay: Preemergence weed control under flooded paddy conditions; assay type: in vivo, Cyperus iria; conditions: rated 3-4 weeks after treatment
Procedure, shortened: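 Ratings on a 0-9 visual scale cover stand, vigor, malformation, size, chlorosis and overall appearance relative to a control, taken three to four weeks post-treatment. Application was into flood water over freshly sown silt loam at roughly 0.0313 to 0.500 kg/ha.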

ZEAMX (Corn, Field) = assay: Preemergence herbicidal evaluation; assay type: in vivo, Zea mays; conditions: rated 4-5 weeks after treatment, rating scale 0-9
Procedure, shortened: (§1)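 Visual 0-9 rating vs control (stand, vigor, malformation, size, chlorosis, overall appearance), scored 4-5 wk after spraying. Seeded soil cups were treated preemergence with compound in aqueous acetone, ~0.0156-0.500 kg/ha equivalent.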

CASOB (Sicklepod) = assay: Postemergence herbicidal evaluation; assay type: in vivo, Cassia obtusifolia; conditions: postemergence
Procedure, shortened: (§2)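 ~2-wk seedlings; postemergence spray, 40 psi; vehicle 1:1 acetone:water + 0.5% Tween 20; rate ≈0.0156–0.500 kg/ha; greenhouse hold; scored 4–5 wk after treatment, 0–9 scale vs control; repeat tests averaged.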

[1] = tested on: TRZAWR (Wheat, Winter, cv Riband); assay: Preemergence herbicidal evaluation; assay type: in vivo, Triticum aestivum; conditions: rated 4-5 weeks after treatment, rating scale 0-9
Procedure, shortened: as §1

SETVI (Foxtail, Green) = assay: Preemergence herbicidal evaluation; assay type: in vivo, Setaria viridis; conditions: rated 4-5 weeks after treatment, rating scale 0-9
Procedure, shortened: as §1

MOOVA (Monochoria) = assay: Preemergence weed control under flooded paddy conditions; assay type: in vivo, Monochoria vaginalis; conditions: rated 3-4 weeks after treatment
Procedure, shortened: (§3)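 Herbicidal effect is scored visually on a 0-9 scale against an untreated control, three to four weeks after compounds are pipetted into the flood water (1.5 to 3 cm deep) over seeds planted in silt loam at 0.5 cm depth. Rates: about 0.0313 to 0.500 kg/ha.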

[2] = tested on: CHEAL (Lambsquarters, Common); assay: Postemergence herbicidal evaluation; assay type: in vivo, Chenopodium album; conditions: postemergence
Procedure, shortened: as §2

ORYSAT (Rice, Tebonnet) [3] = assay: Postemergence herbicidal evaluation; assay type: in vivo, Oryza sativa, (L.) Tebonnet; conditions: postemergence
Procedure, shortened: as §2

ORYSAT (Rice, Tebonnet) [4] = assay: Preemergence herbicidal evaluation; assay type: in vivo, Oryza sativa, (L.) Tebonnet; conditions: rated 4-5 weeks after treatment, rating scale 0-9
Procedure, shortened: as §1

[5] = tested on: GLXMAW (Soybean, Williams); assay: Preemergence herbicidal evaluation; assay type: in vivo, Glycine max, (L.) Merr. cv Williams; conditions: rated 4-5 weeks after treatment, rating scale 0-9
Procedure, shortened: as §1

GALAP (Galium) = assay: Preemergence herbicidal evaluation; assay type: in vivo, Galium aparine; conditions: rated 4-5 weeks after treatment, rating scale 0-9
Procedure, shortened: as §1

ECHCG (Barnyardgrass) = assay: Postemergence herbicidal evaluation; assay type: in vivo, Echinochloa crus-galli; conditions: postemergence
Procedure, shortened: as §2

[6] = tested on: SAGPY (Arrowhead (Pygmaea)); assay: Preemergence weed control under flooded paddy conditions; assay type: in vivo, Sagittaria pygmaea; conditions: rated 3-4 weeks after treatment
Procedure, shortened: as §3

Cn1c(C(F)(F)F)cc(=O)n(-c2cc(N=C3SCC(=O)N3Cc3cc(Cl)cc(Cl)c3)c(Cl)cc2F)c1=O [Compound 150, 3-{4-Chloro-5-{[3-(3,5-dichlorobenzyl)-4-oxo-2-thiazolidinylidene]amino}-2-fluorophenyl}-1-methyl-6-(trifluoromethyl)-2,4(1H,3H)-pyrimidinedione]
2.5: Herbicidal rating ORYSAT (ORYSAT (Rice, Tebonnet) [3]; rate 0.0313 kg/ha)
2.0: Preemergence herbicidal rating ZEAMX (ZEAMX (Corn, Field); rate 0.1250 kg/ha) | Herbicidal rating ORYSAT (ORYSAT (Rice, Tebonnet) [3]; rate 0.0156 kg/ha) | Preemergence herbicidal rating ORYSAT (ORYSAT (Rice, Tebonnet) [4]; rate 0.1250 kg/ha) | Preemergence herbicidal rating GLXMAW ([5]; rate 0.2500 kg/ha) | Preemergence herbicidal rating GALAP (GALAP (Galium); rate 0.2500 kg/ha) | Herbicidal rating ECHCG (ECHCG (Barnyardgrass); rate 0.0156 kg/ha) | Herbicidal rating ECHCG (ECHCG (Barnyardgrass); rate 0.0625 kg/ha) | herbicidal effect rating, SAGPY ([6]; 0.0625 kg/ha) | herbicidal effect rating, SAGPY ([6]; 0.1250 kg/ha) | herbicidal effect rating, SAGPY ([6]; 0.2500 kg/ha)
0.0: Preemergence herbicidal rating ZEAMX (ZEAMX (Corn, Field); rate 0.0313 kg/ha) | Preemergence herbicidal rating TRZAWR ([1]; rate 0.0313 kg/ha) | Preemergence herbicidal rating TRZAWR ([1]; rate 0.0625 kg/ha) | Preemergence herbicidal rating SETVI (SETVI (Foxtail, Green); rate 0.0313 kg/ha) | Preemergence herbicidal rating SETVI (SETVI (Foxtail, Green); rate 0.0625 kg/ha) | Preemergence herbicidal rating ORYSAT (ORYSAT (Rice, Tebonnet) [4]; rate 0.0313 kg/ha) | Preemergence herbicidal rating GLXMAW ([5]; rate 0.0313 kg/ha) | Preemergence herbicidal rating GLXMAW ([5]; rate 0.0625 kg/ha) | Preemergence herbicidal rating GLXMAW ([5]; rate 0.1250 kg/ha) | Preemergence herbicidal rating GALAP (GALAP (Galium); rate 0.0313 kg/ha) | Preemergence herbicidal rating GALAP (GALAP (Galium); rate 0.0625 kg/ha) | Preemergence herbicidal rating GALAP (GALAP (Galium); rate 0.1250 kg/ha) | herbicidal effect rating, SAGPY ([6]; 0.0313 kg/ha)
1.0: Preemergence herbicidal rating ZEAMX (ZEAMX (Corn, Field); rate 0.0625 kg/ha) | Preemergence herbicidal rating ZEAMX (ZEAMX (Corn, Field); rate 0.2500 kg/ha) | Herbicidal rating CASOB (CASOB (Sicklepod); rate 0.0156 kg/ha) | Preemergence herbicidal rating TRZAWR ([1]; rate 0.1250 kg/ha) | Preemergence herbicidal rating TRZAWR ([1]; rate 0.2500 kg/ha) | Preemergence herbicidal rating ORYSAT (ORYSAT (Rice, Tebonnet) [4]; rate 0.0625 kg/ha) | Preemergence herbicidal rating ORYSAT (ORYSAT (Rice, Tebonnet) [4]; rate 0.2500 kg/ha) | Herbicidal rating ECHCG (ECHCG (Barnyardgrass); rate 0.0313 kg/ha)
9.0: herbicidal effect rating, CYPIR (CYPIR (Rice Flatsedge); 0.0313 kg/ha) | herbicidal effect rating, CYPIR (CYPIR (Rice Flatsedge); 0.0625 kg/ha) | herbicidal effect rating, CYPIR (CYPIR (Rice Flatsedge); 0.1250 kg/ha) | herbicidal effect rating, CYPIR (CYPIR (Rice Flatsedge); 0.2500 kg/ha) | Preemergence herbicidal rating SETVI (SETVI (Foxtail, Green); rate 0.2500 kg/ha) | herbicidal effect rating, MOOVA (MOOVA (Monochoria); 0.0625 kg/ha) | herbicidal effect rating, MOOVA (MOOVA (Monochoria); 0.1250 kg/ha) | herbicidal effect rating, MOOVA (MOOVA (Monochoria); 0.2500 kg/ha) | Herbicidal rating CHEAL ([2]; rate 0.0156 kg/ha) | Herbicidal rating CHEAL ([2]; rate 0.0313 kg/ha) | Herbicidal rating CHEAL ([2]; rate 0.0625 kg/ha)
3.0: Herbicidal rating CASOB (CASOB (Sicklepod); rate 0.0313 kg/ha) | Herbicidal rating CASOB (CASOB (Sicklepod); rate 0.0625 kg/ha) | Herbicidal rating ORYSAT (ORYSAT (Rice, Tebonnet) [3]; rate 0.0625 kg/ha)
4.0: Preemergence herbicidal rating SETVI (SETVI (Foxtail, Green); rate 0.1250 kg/ha)
6.0: herbicidal effect rating, MOOVA (MOOVA (Monochoria); 0.0313 kg/ha)
